Laboratory results reported in patent publication US9969758B2, “Antimicrobial compounds” (BIOMERIEUX, priority 2014, dated 2018).
≈ marks a conversion by molar mass, not a printed value.

How the values were obtained:
[1] = system: glycopeptide-resistant enterococci; assay: MIC by agar dilution; assay type: cell-based
Procedure, shortened: (§1)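 Agar dilution in peptone-free medium with lysed horse blood, NAD and hemin; compounds at 0.0031–8.0 μg/mL (0.016–32 μg/mL for Gram-positives). Inoculum 10 000 CFU/spot, 22 h at 37 °C; fosfomycin tested in IsoSensitest plus glucose-6-phosphate. Clinical and control isolates, at least two independent replicates.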

[2] = system: methicillin-sensitive Staphylococcus aureus; assay: MIC by agar dilution; assay type: cell-based; settings: MSSA (13)
Procedure, shortened: as §1

Structure (SMILES): C[C@H](N)C(=O)N[C@@H](C)P(=O)(O)O [Alafosfalin, L-alanyl-L-1-aminoethylphosphonic acid]
- MIC50 [1]: 16 µg/mL (≈ 81.6 µM)
- MIC90 [1]: > 32 µg/mL
- MIC ([1]; read-out: Modal MIC (most frequent MIC)): 16 µg/mL (≈ 81.6 µM)
- MIC Range [2]: 0.25 to 16 µg/mL
- MIC50 ([2]; Staphylococcus aureus, read-out: MIC50): 4 µg/mL (≈ 20.4 µM)
- MIC90 ([2]; Staphylococcus aureus, read-out: MIC90): 8 µg/mL (≈ 40.8 µM)
- MIC ([2]; Staphylococcus aureus, read-out: Modal MIC (most frequent MIC)): 4 µg/mL (≈ 20.4 µM)
